Reference: US7579491B2, “Process for preparing brevifoliol” (Council of Scientific and Industrial Research, priority 2002, dated 2009)

Tested on: different cancer cell lines
Assay: in vitro testing for anticancer activity
Type: cell-based
Experimental: The isolation of brevifoliol from leaves of the plant Taxus wallichiana is also reported in S. K. Chattopadhyay et al Indian J. Chemistry 35B, 175-177(1996) as part of studies on the isolation of anticancer compounds. The process of this disclosure involved extracting the dried and crushed needles of Taxus wallichiana with methanol for 72 hours and the extract was concentrated in vacuo. The concentrate was diluted with water and extracted with hexane and chloroform respectively. Concentration of the chloroform phase under vacuum left a residue which was separated by column chromatography over silica gel. Fraction eluted with chloroform-methanol (98:5) contained brevifoliol which was further purified by re-chromatography over silica gel and eluted with chloroform-methanol (99:2). Fractions containing brevifoliol were combined and concentrated and recrystallized from pet-ether and ethyl acetate mixture to get brevifoliol as needles. […] The detection of anticancer activity in brevifoliol prompted the present investigators to develop an efficient processing technology for isolation of the compound in large quantities from the needles of the plant for further biological testing.

C=C1C2C[C@]3(C(C)(C)O)CC(O)C(C)=C3[C@@H](OC(=O)c3ccccc3)[C@H](OC(C)=O)[C@]2(C)[C@@H](OC(C)=O)C[C@@H]1O (stereo partly shown) [brevifoliol]
anticancer activity: significant anticancer activity
